Reference: patent US20220056043A1, “NITROGEN-CONTAINING FUSED CYCLIC COMPOUND, PREPARATION METHOD THEREFOR AND USE THEREOF” (SICHUAN KELUN-BIOTECH BIOPHARMACEUTICAL CO., LTD., priority 2019, published 2022)
Structures can show the parent of a compound that is named as a salt.

Assays:
hNLRP3 inflammasome = molecular target: T1, hNLRP3 inflammasome (Homo sapiens, UniProt Q96P20); experiment: Agonistic effect on the expression of IL-1β in THP-1 cells after PMA-induced differentiation (HTRF); format: cell-based; details: IL-1β level, PMA-differentiated THP-1 cells, 6 hours
T1 construct: endogenous in cells; host or cells: THP-1 cells, PMA-differentiated
Text: Experimental Example 1: Agonistic Effect of the Compound of the Invention on the Expression of IL-1β in THP-1 Cells after PMA-Induced Differentiation
In this test, a HTRF (homogeneous time-resolved fluorescence) detection method was used to test the effect of the compound of the invention on the level of downstream cytokine IL-1β of NLRP3 to evaluate the agonistic effect of the compound on hNLRP3 inflammasome or hNLRP3 inflammasome pathway at a cellular level.
Reagent: RPMI 1640 (Hyclone); heat-inactivated FBS (fetal bovine serum) (Gibco); PMA (phorbol myristal acetate) (Beyotime)
Kit: IL-1β assay kit (CISIO)
1) THP-1 cells in a logarithmic growth phase were seeded in a T75 culture flask at a density of 5×10^5 cells/well, and cultured in a cell incubator at 37° C., 5% CO2 for 24 hours, and then 1 μM PMA was used to induce THP-1 suspension cells to become adherent macrophages. The medium was RPMI 1640 containing 10% heat-inactivated FBS and 0.05 mM β-mercaptoethanol.
2) The cells were induced and cultured for 24 hours. Then the adherent cells were trypsinized and centrifuged at 1000 rpm for 5 min. The supernatant was removed, and the cells were resuspended to a density of 2×10^6 cells/mL in RPMI 1640 medium containing 2% heat-inactivated FBS. 50 μL/well of cell resuspension was taken and spread on a 96-well plate such that the number of cells in each well was 1×10^5.
3) An appropriate amount of 10 mM DMSO solution of the compound to be tested was taken and diluted to a concentration of 2× test concentration with RPMI 1640 medium containing 2% heat-inactivated FBS. 50 μL/well of the dilution was added to the cells in the 96-well plate, and mixed well. The plate was placed in a cell incubator at 37° C., 5% CO2 for 6 hours. The supernatant was collected, and the level of IL-1β was measured in accordance with the instructions of the IL-1β detection kit.
4) EC50 was fitted by the GraphPad software log(agonist) vs. response—Variable slope four-parameter method.

hTLR7 = molecular target: T2, hTLR7 (Homo sapiens, UniProt Q9NYK1); experiment: Agonistic effect on hTLR7, HEK-hTLR7-NF-κB-Luciferase reporter cells; format: cell-based; details: 16 hours
T2 construct: host or cells: HEK-hTLR7-NF-κB-Luciferase cells
T2 sequence (Q9NYK1 27-1049): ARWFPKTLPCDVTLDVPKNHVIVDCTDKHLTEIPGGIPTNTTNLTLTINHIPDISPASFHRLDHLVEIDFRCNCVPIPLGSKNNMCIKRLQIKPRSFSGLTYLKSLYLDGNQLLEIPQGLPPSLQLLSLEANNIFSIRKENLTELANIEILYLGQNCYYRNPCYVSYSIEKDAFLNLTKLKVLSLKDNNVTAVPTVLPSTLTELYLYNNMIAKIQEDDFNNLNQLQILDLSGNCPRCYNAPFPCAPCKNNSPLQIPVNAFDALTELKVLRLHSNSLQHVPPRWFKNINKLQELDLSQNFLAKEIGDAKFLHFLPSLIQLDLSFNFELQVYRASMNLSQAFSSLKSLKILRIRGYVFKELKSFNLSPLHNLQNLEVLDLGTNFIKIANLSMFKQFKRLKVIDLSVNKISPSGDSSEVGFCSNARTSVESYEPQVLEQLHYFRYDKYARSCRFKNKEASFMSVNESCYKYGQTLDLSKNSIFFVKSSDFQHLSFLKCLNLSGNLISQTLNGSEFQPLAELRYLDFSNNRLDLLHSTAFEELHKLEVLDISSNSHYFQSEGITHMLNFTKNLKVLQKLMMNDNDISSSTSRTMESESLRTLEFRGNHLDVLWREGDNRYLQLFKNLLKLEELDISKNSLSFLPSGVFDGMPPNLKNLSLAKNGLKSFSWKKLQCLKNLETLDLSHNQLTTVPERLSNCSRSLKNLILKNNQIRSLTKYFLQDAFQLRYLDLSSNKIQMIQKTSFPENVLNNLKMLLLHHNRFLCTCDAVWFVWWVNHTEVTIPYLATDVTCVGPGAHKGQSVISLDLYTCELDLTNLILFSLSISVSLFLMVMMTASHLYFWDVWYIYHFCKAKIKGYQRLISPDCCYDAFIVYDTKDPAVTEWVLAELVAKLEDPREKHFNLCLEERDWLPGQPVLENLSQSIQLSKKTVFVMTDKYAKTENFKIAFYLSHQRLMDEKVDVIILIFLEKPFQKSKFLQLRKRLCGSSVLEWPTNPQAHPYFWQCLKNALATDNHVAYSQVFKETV
Text: Experimental Example 3: Agonistic Effect of the Compound of the Invention on hTLR7
In this test, the luciferase in HEK-hTLR7-NF-κB-reporter cells was detected to test the activating effect of the compound of the invention on TLR7 signaling pathway, so as to evaluate the specificity of the agonistic effect of the compound on NLRP3 pathway.
Reagents: DMEM (High glucose); FBS (fetal bovine serum) (Gibco); Bright-Glo™ Luciferase detection kit (Promega)
Cells: HEK-hTLR7-NF-κB-Luciferase gene cells (human TLR7 NF-κB-luciferase reporter gene cells) (Nanjing Cobioer)
1) The HEK-hTLR7-NF-κB-Luciferase cells in a logarithmic growth phase were trypsinized and resuspended in the medium to a concentration of 2×10^6 cells/mL. 50 μL/well of the cell resuspension was added to a 96-well plate such that the number of cells in each well was […]. An appropriate amount of 10 mM DMSO solution of the compound to be tested was taken and diluted to a concentration of 2× test concentration with the medium. 50 μL/well was added to the cells in the 96-well plate, and the 96-well plate was incubated in an incubator at 37° C. and 5% CO2 for 16 hours. The medium was DMEM (High glucose) containing 10% FBS.
2) After the cell incubation, 100 μL/well of Bright-Glo™ Luciferase detection reagent was added, and the mixture was incubated at room temperature for 5 minutes. Relative luciferase activity unit (RLU) was read using a microplate reader.
3) The EC50 of effect of the tested compound to stimulate hTLR7 was fitted by the GraphPad software log(agonist) vs. response—Variable slope four-parameter method.

T1 sequence (Q96P20 whole entry): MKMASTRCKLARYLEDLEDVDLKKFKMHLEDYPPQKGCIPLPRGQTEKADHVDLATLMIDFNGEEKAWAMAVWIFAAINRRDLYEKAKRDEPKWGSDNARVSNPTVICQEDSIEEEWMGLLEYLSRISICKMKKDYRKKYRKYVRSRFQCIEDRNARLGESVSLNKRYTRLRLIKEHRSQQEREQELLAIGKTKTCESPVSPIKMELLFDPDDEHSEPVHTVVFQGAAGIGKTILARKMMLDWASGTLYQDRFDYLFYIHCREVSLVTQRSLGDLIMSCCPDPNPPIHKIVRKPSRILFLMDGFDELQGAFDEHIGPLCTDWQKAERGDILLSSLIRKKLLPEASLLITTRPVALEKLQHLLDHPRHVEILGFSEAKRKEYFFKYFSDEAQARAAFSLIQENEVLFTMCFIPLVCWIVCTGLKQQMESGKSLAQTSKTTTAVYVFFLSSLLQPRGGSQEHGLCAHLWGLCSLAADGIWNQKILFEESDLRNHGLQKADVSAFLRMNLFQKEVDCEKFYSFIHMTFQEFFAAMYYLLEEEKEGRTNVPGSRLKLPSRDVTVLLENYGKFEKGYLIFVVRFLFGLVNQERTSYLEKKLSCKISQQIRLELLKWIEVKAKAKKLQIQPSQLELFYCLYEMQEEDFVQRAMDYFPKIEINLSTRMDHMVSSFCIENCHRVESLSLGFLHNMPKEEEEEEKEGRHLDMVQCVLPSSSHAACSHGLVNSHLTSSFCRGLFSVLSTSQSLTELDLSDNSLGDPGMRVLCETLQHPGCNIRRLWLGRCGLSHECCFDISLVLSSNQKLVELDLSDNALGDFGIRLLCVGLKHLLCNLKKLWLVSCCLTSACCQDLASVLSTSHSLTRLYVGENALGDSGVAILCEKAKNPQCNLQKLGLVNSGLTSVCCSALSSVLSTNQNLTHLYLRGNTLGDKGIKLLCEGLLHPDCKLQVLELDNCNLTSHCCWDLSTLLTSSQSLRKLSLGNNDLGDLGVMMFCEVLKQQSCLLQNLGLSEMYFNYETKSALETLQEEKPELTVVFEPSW

Compound: Nc1cc(N2CC[C@@H](O)C2)c2sc(-c3ccn[nH]3)cc2n1 [Compound 181]
- EC50 (hNLRP3 inflammasome): 0.009 µM
- EC50 (hTLR7): > 100000 nM

Compound: CN(CCNc1cc(N)nc2cc(-c3ccn[nH]3)sc12)C(=O)C1CC1 [Compound 75, N-(2-((5-amino-2-(1H-pyrazol-5-yl)thieno[3,2-b]pyridin-7-yl)amino)ethyl)-N-methylcyclopropionamide]
- EC50 (hNLRP3 inflammasome): 0.11 µM
- EC50 (hTLR7): > 100000 nM

Compound: CC1CN(CCNc2cc(N)nc3cc(-c4ccn[nH]4)sc23)CC(C)O1 (stereo not shown) [Compound 62]
- EC50 (hNLRP3 inflammasome): 0.06 µM
- EC50 (hTLR7): > 100000 nM

Compound: CC1(O)CCN(CCCNc2cc(N)nc3cc(-c4ccn[nH]4)sc23)CC1 [Compound 99, 1-(3-((5-amino-2-(1H-pyrazol-5-yl)thieno[3,2-b]pyridin-7-yl)amino)propyl)-4-methylpiperidine-4-ol]
- EC50 (hNLRP3 inflammasome): 0.54 µM
- EC50 (hTLR7): > 100000 nM

Compound: Cn1cnc(CNc2cc(N)nc3cc(-c4ccn[nH]4)sc23)c1 [Compound 63, N^7-(1-methyl-1H-imidazol-4-yl)methyl-2-(1H-pyrazol-5-yl)thieno[3,2-b]pyridine-5,7-diamine]
- EC50 (hNLRP3 inflammasome): 0.07 µM
- EC50 (hTLR7): > 100000 nM

Compound: Nc1cc(NCC2CCOCC2)c2sc(-c3ccn[nH]3)cc2n1 [Compound 120, 2-(1H-pyrazol-5-yl)-N^7-((tetrahydro-2H-pyran-4-yl)methyl)thieno[3,2-b]pyridine-5,7-diamine]
- EC50 (hNLRP3 inflammasome): 0.05 µM
- EC50 (hTLR7): > 100000 nM

Compound: Nc1cc(N2CCN(C=O)CC2)c2sc(-c3ccn[nH]3)cc2n1 [Compound 178]
- EC50 (hNLRP3 inflammasome): 0.17 µM
- EC50 (hTLR7): > 100000 nM

Compound: Nc1cc(NC2CCOC2)c2sc(-c3ccn[nH]3)cc2n1 (stereo not shown) [Compound 61, 2-(1H-pyrazol-5-yl)-N^7-(tetrahydrofuran-3-yl)thieno[3,2-b]pyridine-5,7-diamine]
- EC50 (hNLRP3 inflammasome): 0.1 µM
- EC50 (hTLR7): > 100000 nM

Compound: Cc1c(-c2ccn[nH]2)sc2c(NC[C@@H]3CCCO3)cc(N)nc12 [Compound 157]
- EC50 (hNLRP3 inflammasome): 3.47 µM
- EC50 (hTLR7): > 100000 nM

Compound: C[C@H](O)CNc1cc(N)nc2cc(-c3ccn[nH]3)sc12 [Compound 33]
- EC50 (hNLRP3 inflammasome): 0.26 µM
- EC50 (hTLR7): > 100000 nM

Compound: CC[C@H](CO)Nc1cc(N)nc2cc(-c3ccn[nH]3)sc12 [Compound 95, (R)-2-((5-amino-2-(1H-pyrazol-5-yl)thieno[3,2-b]pyridin-7-yl)amino)butanol]
- EC50 (hNLRP3 inflammasome): 0.09 µM
- EC50 (hTLR7): > 100000 nM

Compound: Nc1cc(N[C@H]2C[C@H]2CO)c2sc(-c3ccn[nH]3)cc2n1 [Compound 182s]
- EC50 (hNLRP3 inflammasome): 0.11 µM
- EC50 (hTLR7): > 100000 nM

Compound: Nc1cc(N[C@@H]2CC[C@@H](O)C2)c2sc(-c3ccn[nH]3)cc2n1 [Compound 30s, (1R,3R)-3-((5-amino-2-(1H-pyrazol-5-yl)thieno[3,2-b]pyridin-7-yl)amino)cyclopentanol hydrochloride]
- EC50 (hNLRP3 inflammasome): 0.02 µM
- EC50 (hTLR7): > 100000 nM

Compound: Nc1cc(NC2COC2)c2sc(-c3ccn[nH]3)cc2n1 [Compound 112, N^7-(oxetan-3-yl)-2-(1H-pyrazol-5-yl)thieno[3,2-b]pyridine-5,7-diamine]
- EC50 (hNLRP3 inflammasome): 0.28 µM
- EC50 (hTLR7): > 100000 nM

Compound: CC1(C)CCN(c2cc(N)nc3cc(-c4ccn[nH]4)sc23)CC1 [Compound 173]
- EC50 (hNLRP3 inflammasome): 0.1 µM
- EC50 (hTLR7): > 100000 nM

Compound: Nc1cc(NC2CCC(O)CC2)c2sc(-c3ccn[nH]3)cc2n1 (stereo not shown) [Compound 114, 4-((5-amino-2-(1H-pyrazol-5-yl)thieno[3,2-b]pyridin-7-yl)amino)-1-cyclohexanol]
- EC50 (hNLRP3 inflammasome): 0.06 µM
- EC50 (hTLR7): > 100000 nM

Compound: Nc1cc(NC2CCCC2)c2sc(-c3ccn[nH]3)cc2n1 [Compound 110, N^7-cyclopentyl-2-(1H-pyrazol-5-yl)thieno[3,2-b]pyridine-5,7-diamine]
- EC50 (hNLRP3 inflammasome): 0.02 µM
- EC50 (hTLR7): > 100000 nM

Compound: COCCNc1cc(N)nc2cc(-c3ccn[nH]3)sc12 [Compound 100, N^7-(2-methoxyethyl)-2-(1H-pyrazol-5-yl)thieno[3,2-b]pyridine-5,7-diamine]
- EC50 (hNLRP3 inflammasome): 0.03 µM
- EC50 (hTLR7): > 100000 nM

Compound: Nc1cc(N2CCNCC2)c2sc(-c3ccn[nH]3)cc2n1 [Compound 175]
- EC50 (hNLRP3 inflammasome): 0.34 µM
- EC50 (hTLR7): > 100000 nM

Compound: Nc1cc(NCC2CC2)c2sc(-c3ccn[nH]3)cc2n1 [Compound 102, N^7-(cyclopropylmethyl)-2-(1H-pyrazol-5-yl)thieno[3,2-b]pyridine-5,7-diamine]
- EC50 (hNLRP3 inflammasome): 0.01 µM
- EC50 (hTLR7): > 100000 nM

Compound: Nc1cc(N2CCN(C3CC3)CC2)c2sc(-c3ccn[nH]3)cc2n1 [Compound 163]
- EC50 (hNLRP3 inflammasome): 0.27 µM
- EC50 (hTLR7): > 100000 nM

Compound: CC(C)(CO)CNc1cc(N)nc2cc(-c3ccn[nH]3)sc12 [Compound 115, 3-((5-amino-2-(1H-pyrazol-5-yl)thieno[3,2-b]pyridin-7-yl)amino)-2,2-dimethyl-1-propanol]
- EC50 (hNLRP3 inflammasome): 0.04 µM
- EC50 (hTLR7): > 100000 nM

Compound: COC1(C)CCN(c2cc(N)nc3cc(-c4ccn[nH]4)sc23)CC1 [Compound 165]
- EC50 (hNLRP3 inflammasome): 0.03 µM
- EC50 (hTLR7): > 100000 nM

Compound: CC(=O)N(C)CCCNc1cc(N)nc2cc(-c3ccn[nH]3)sc12 [Compound 74, N-(3-((5-amino-2-(1H-pyrazol-5-yl)thieno[3,2-b]pyridin-7-yl)amino)propyl)-N-methylacetamide]
- EC50 (hNLRP3 inflammasome): 0.26 µM
- EC50 (hTLR7): > 100000 nM

Compound: Nc1cc(N[C@@H]2CC[C@H](O)C2)c2sc(-c3ccn[nH]3)cc2n1 [Compound 31, (1S,3R)-3-((5-amino-2-(1H-pyrazol-5-yl)thieno[3,2-b]pyridin-7-yl)amino)cyclopentanol]
- EC50 (hNLRP3 inflammasome): 0.11 µM
- EC50 (hTLR7): > 100000 nM

Compound: Cn1cc(-c2cc3nc(N)cc(NCCCO)c3s2)cn1 [Compound 109, 3-((5-amino-2-(1-methyl-1H-pyrazol-4-yl)thieno[3,2-b]pyridin-7-yl)amino)-1-propanol]
- EC50 (hNLRP3 inflammasome): 4.48 µM
- EC50 (hTLR7): > 100000 nM

Compound: Cc1c(-c2cc[nH]n2)sc2c(NCCCO)cc(N)nc12 [Compound 159]
- EC50 (hNLRP3 inflammasome): 1.29 µM
- EC50 (hTLR7): > 100000 nM

Compound: Cn1ccc(CNc2cc(N)nc3cc(-c4ccn[nH]4)sc23)n1 [Compound 60, N^7-(1-methyl-1H-pyrazol-3-yl)methyl-2-(1H-pyrazol-5-yl)thieno[3,2-b]pyridine-5,7-diamine]
- EC50 (hNLRP3 inflammasome): 0.1 µM
- EC50 (hTLR7): > 100000 nM

Compound: CC(CO)(CO)CNc1cc(N)nc2cc(-c3ccn[nH]3)sc12 [Compound 122]
- EC50 (hNLRP3 inflammasome): 0.6 µM
- EC50 (hTLR7): > 100000 nM
